Reference: patent US7592336B2, “Hepatitis C virus inhibitors” (Bristol-Myers Squibb Company, priority 2005, dated 2009)

How the values were obtained:
[1] = molecular target: T1, HCV NS3/4A protease complex, BMS strain (UniProt P27958, species not given/STRAIN_BMS); test: FRET peptide assay to monitor HCV NS3/4A proteolytic activity (BMS strain); assay type: biochemical, HCV genotype 1a; settings: NS3/4A BMS strain; read-out: Activity Range (IC50)
T1 construct: said of H77 and J4L6S, not expressly of BMS; fused on or other part: A three-lysine solubilising tail at the NS4A C-terminus and purification on Ni-NTA are described for the H77 and J4L6S constructs
T1 sequence (P27958 1027-1657, change not shown, one chain of several): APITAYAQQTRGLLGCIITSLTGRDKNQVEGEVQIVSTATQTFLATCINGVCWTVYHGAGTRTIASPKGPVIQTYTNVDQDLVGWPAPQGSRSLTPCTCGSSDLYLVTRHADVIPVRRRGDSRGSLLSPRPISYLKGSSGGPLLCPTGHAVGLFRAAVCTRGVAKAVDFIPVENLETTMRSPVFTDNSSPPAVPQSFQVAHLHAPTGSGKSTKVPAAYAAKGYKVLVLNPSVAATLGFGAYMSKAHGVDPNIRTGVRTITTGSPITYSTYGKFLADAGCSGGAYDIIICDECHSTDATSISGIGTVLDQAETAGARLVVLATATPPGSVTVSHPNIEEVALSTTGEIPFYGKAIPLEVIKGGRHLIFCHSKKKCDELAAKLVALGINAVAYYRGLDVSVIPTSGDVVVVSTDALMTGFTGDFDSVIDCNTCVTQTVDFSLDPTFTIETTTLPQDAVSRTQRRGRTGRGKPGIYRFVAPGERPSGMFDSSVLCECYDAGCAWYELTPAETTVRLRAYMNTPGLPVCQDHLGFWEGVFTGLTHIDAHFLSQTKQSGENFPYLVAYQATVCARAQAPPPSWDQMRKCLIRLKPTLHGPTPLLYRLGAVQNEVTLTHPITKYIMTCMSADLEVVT
Source text: HCV NS3 protease complexes, derived from the BMS strain, H77 strain or J4L6S strain, were generated, as described below. These purified recombinant proteins were generated for use in a homogeneous assay (see below) to provide an indication of how effective compounds of the present disclosure would be in inhibiting HCV NS3 proteolytic activity.
Serum from an HCV-infected patient was obtained from Dr. T. Wright, San Francisco Hospital. An engineered full-length cDNA (compliment deoxyribonucleic acid) template of the HCV genome (BMS strain) was constructed from DNA fragments obtained by reverse transcription-PCR (RT-PCR) of serum RNA (ribonucleic acid) and using primers selected on the basis of homology between other genotype 1a strains. From the determination of the entire genome sequence, a genotype 1a was assigned to the HCV isolate according to the classification of Simmonds et al. (See P Simmonds, K A Rose, S Graham, S W Chan, F McOmish, B C Dow, E A Follett, P L Yap and H Marsden, J. Clin. Microbiol., 31(6), 1493-1503 (1993)). […] The infectious clones, H77 (1a genotype) and J4L6S (1b genotype) were obtained from R. Purcell (NIH) and the sequences are published in Genbank (AAB67036, see Yanagi, M., Purcell, R. H., Emerson, S. U. and Bukh, J. Proc. Natl. Acad. Sci. U.S.A. 94(16), 8738-8743 (1997); AF054247, see Yanagi, M., St Claire, M., Shapiro, M., Emerson, S. U., Purcell, R. H. and Bukh, J, Virology 244 (1), 161-172. (1998)).
NS3/4A protease complex-containing fractions were pooled and loaded on a desalting column Superdex-S200 pre-equilibrated with buffer D (25 mM HEPES, pH 7.5, 20% glycerol, 300 mM NaCl, 0.2% Triton X-100, 10 mM βME). Sample was loaded at a flow rate of 1 mL/min. NS3/4A protease complex-containing fractions were pooled and concentrated to approximately 0.5 mg/ml. The purity of the NS3/4A protease complexes, derived from the BMS, H77 and J4L6S strains, were judged to be greater than 90% by SDS-PAGE and mass spectrometry analyses. The enzyme was stored at −80° C., thawed on ice and diluted prior to use in assay buffer.
The purpose of this in vitro assay was to measure the inhibition of HCV NS3 protease complexes, derived from the BMS strain, H77 strain or J4L6S strain, as described above, by compounds of the present disclosure. This assay provides an indication of how effective compounds of the present disclosure would be in inhibiting HCV NS3 proteolytic activity.
In order to monitor HCV NS3/4A protease activity, an NS3/4A peptide substrate was used. The substrate was RET S1 (Resonance Energy Transfer Depsipeptide Substrate; AnaSpec, Inc. cat #22991) (FRET peptide), described by Taliani et al. in Anal. Biochem. 240(2):60-67 (1996). The sequence of this peptide is loosely based on the NS4A/NS4B natural cleavage site for the HCV NS3 protease except there is an ester linkage rather than an amide bond at the cleavage site. The peptide also contains a fluorescence donor, EDANS, near one end of the peptide and an acceptor, DABCYL, near the other end. The fluorescence of the peptide is quenched by […] resonance energy transfer (RET) between the donor and the acceptor, but as the NS3 protease cleaves the peptide the products are released from RET quenching and the fluorescence of the donor becomes apparent.
The peptide substrate was incubated with one of the three recombinant NS3/4A protease complexes, in the absence or presence of a compound of the present disclosure. The inhibitory effects of a compound were determined by monitoring the formation of fluorescent reaction product in real time using a Cytofluor Series 4000.
Assay buffer: 50 mM HEPES, pH 7.5; 0.15M NaCl; 0.1% Triton; 15% Glycerol; 10 mM βME. Substrate: 2 μM final concentration (from a 2 mM stock solution in DMSO stored at −20° C.). HCV NS3/4A protease type 1a (1b), 2-3 nM final concentration (from a 5 μM stock solution in 25 mM HEPES, pH 7.5, 20% glycerol, 300 mM NaCl, 0.2% Triton-X100, 10 mM βME). […]

[2] = tested on: HCV replicon in HUH-7 cells; test: HCV replicon FRET assay; assay type: cell-based, HCV strain 1b; settings: Hepatitis C virus, Huh-7; HCV replicon cell assay; read-out: Activity Range (EC50)
Source text: An HCV replicon whole cell system was established as described by Lohmann V, Korner F, Koch J, Herian U, Theilmann L, Bartenschlager R., Science 285(5424):110-3 (1999). This system enabled us to evaluate the effects of our HCV Protease compounds on HCV RNA replication. Briefly, using the HCV strain 1b sequence described in the Lohmann paper (Assession number: AJ238799), an HCV cDNA was synthesized by Operon Technologies, Inc. (Alameda, Calif.), and the full-length replicon was then assembled in plasmid pGem9zf(+) (Promega, Madison, Wis.) using standard molecular biology techniques. The replicon consists of (i) the HCV 5′ UTR fused to the first 12 amino acids of the capsid protein, (ii) the neomycin phosphotransferase gene (neo), (iii) the IRES from encephalomyocarditis virus (EMCV), and (iv) HCV NS3 to NS5B genes and the HCV 3′ UTR. Plasmid DNAs were linearized with ScaI and RNA transcripts were synthesized in vitro using the T7 MegaScript transcription kit (Ambion, Austin, Tex.) according to manufacturer's directions. In vitro transcripts of the cDNA were transfected into the human hepatoma cell line, HUH-7. […] Resulting cell lines were characterized for positive and negative strand RNA production and protein production over time.
The HCV replicon FRET assay was developed to monitor the inhibitory effects of compounds described in the disclosure on HCV viral replication. HUH-7 cells, constitutively expressing the HCV replicon, were grown in Dulbecco's Modified Eagle Media (DMEM) (Gibco-BRL) containing 10% Fetal calf serum (FCS) (Sigma) and 1 mg/ml G418 (Gibco-BRL). Cells were seeded the night before (1.5×10^4 cells/well) in 96-well tissue-culture sterile plates. Compound and no compound controls were prepared in DMEM containing 4% FCS, 1:100 Penicillin/Streptomysin (Gibco-BRL), 1:100 L-glutamine and 5% DMSO in the dilution plate (0.5% DMSO final concentration in the assay). Compound/DMSO mixes were added to the cells and incubated for 4 days at 37° C. After 4 days, cells were first assessed for cytotoxicity using alamar Blue (Trek Diagnotstic Systems) for a CC50 reading. The toxicity of compound (CC50) was determined by adding 1/10th volume of alamar Blue to the media incubating the cells. After 4 h, the fluorescence signal from each well was read, with an excitation wavelength at 530 nm and an emission wavelength of 580 nm, using the Cytofluor Series 4000 (Perspective Biosystems). Plates were then rinsed thoroughly with Phosphate-Buffered Saline (PBS) (3 times 150 μl). The cells were lysed with 25 μl of a lysis assay reagent containing an HCV protease substrate (5× cell Luciferase cell culture lysis reagent (Promega #E153A) diluted to 1× with distilled water, NaCl added to 150 mM final, the FRET peptide substrate (as described for the enzyme assay above) diluted to 10 μM final from a 2 mM stock in 100% DMSO. […]. The plate was then placed into the Cytofluor 4000 instrument which had been set to 340 nm excitation/490 nm emission, automatic mode for 21 cycles and the plate read in a kinetic mode. EC50 determinations were carried out as described for the IC50 determinations.

| Compound | IC50 [1] [nM] | EC50 [2] [nM] |
| --- | --- | --- |
| C=C[C@@H]1C[C@]1(NC(=O)[C@@H]1C[C@@](O)(c2ccc3ccccc3c2)CN1C(=O)[C@@H](NC(=O)OC(C)(C)C)C(C)(C)C)C(=O)NS(=O)(=O)C1CC1 [Compound 5] | 1 to 100 | 10 to 1000 |
| C=C[C@@H]1C[C@]1(NC(=O)[C@@H]1C[C@@](O)(c2ccccc2CN2CCOCC2)CN1C(=O)[C@@H](NC(=O)OC(C)(C)C)C(C)(C)C)C(=O)NS(=O)(=O)C1CC1 [Compound 20] | 100 to 1000 | 1000 to 10000 |
| C=C[C@@H]1C[C@]1(NC(=O)[C@@H]1C[C@@H](Cc2ccccc2)CN1C(=O)[C@@H](NC(=O)OC(C)(C)C)C(C)(C)C)C(=O)NS(=O)(=O)C1CC1 [Compound 2] | > 1000 | > 10000 |
| C=C[C@@H]1C[C@]1(NC(=O)[C@@H]1C[C@@](O)(c2cccc(OC(C)C)c2)CN1C(=O)[C@@H](NC(=O)OC(C)(C)C)C(C)(C)C)C(=O)NS(=O)(=O)C1CC1 [Compound 15] | 100 to 1000 | 1000 to 10000 |
